Assay results reported in patent US9498546B2, “Synthesis and application of novel imaging agents conjugated to DPA 713 analogs for imaging inflammation” (THE JOHNS HOPKINS UNIVERSITY, priority 2012, dated 2016).

Assays:
[1] = test system: TSPO+ MDA-MB-231 / MDA-MB-231-PSMA xenografts; experiment: In vivo NIRF imaging in TSPO+ MDA-MB-231 breast cancer xenograft bearing mice; set-up: species or system NOD-SCID mice; conditions: 6 nmol intraperitoneally; imaged 1-24 hours
Protocol: Cell lines and Tumor Models. Generation of MDA-MD-231-LMD-PSMA cells. LV-PSMA is a VSV-G pseudotyped lentivirus encoding PSMA which was packaged in 293T cells. LMD-PSMA cells were generated in-house by repetitive lentiviral transduction of a cell line isolated from a lung metastasis derived MDA-MB-231 xenograft in a female NOD-SCID mouse. PSMA expression was evaluated by western blot analysis with 7E11-05 (1:200 dilution). […] Six-to-eight week old female NOD SCID mice were injected subcutaneously with 5×10^6 MDA-MB-231-LMD (a lung metastasis-derived subline of parental MDA-MB-231 behind the right forearm and 5×10^6 MDA-MB-231-LMD-PSMA (the same cell line with Prostate Specific Membrane Antigen (PSMA) stably knocked in via lentiviral vector) injected behind the […] xenografts were allowed to grow until the PSMA xenograft was at least 3 mm in diameter while the −LMD xenograft had reached 6-8 mm in diameter.
Serial in vivo NIRF imaging in TSPO+MDA-MB-231 LMD±PSMA and PC-3 PIP and -flu tumor xenograft bearing mice. MDA-MB-231 LMD lines: one mouse was imaged serially at 1 hour post-tracers, 4 hours, 8 hours and 24 hours post-tracers using a Pearl Impulse Imager (LI-COR Biosciences) with dedicated 710 and 800 nm emission filters. All images were scaled to the same maximum using the manufacturer's software to facilitate direct comparison of all timepoints. […]

[2] = target: T1, TSPO (3H-R-PK11195 binding in J774 macrophages) (Mus musculus, UniProt P50637); experiment: IC50 determination: inhibition of [3H]PK11195 binding in live J774 macrophage-like cells; set-up: species or system murine; conditions: fixed concentration of [3H]PK11195, FIG. 3
T1 construct: using a fixed number of live murine J774 macrophage-like cells; endogenous in cells; host or cells: J774 murine macrophage-like cell line (live cells)
Protocol: FIG. 3 is a graph showing the IC50 for inhibition of 3H-R-PK11195 binding in J774 macrophages by DPA713-IRDye680LT (nM).
The IC50 value determination was done by using a fixed number of live murine J774 macrophage-like cells and incubating increasing concentrations of DPA-713-IRDye against a fixed concentration of [^3H]PK11195. All reactions and washes (50 mM Tris, pH 7.4) are done using a Brandell Cell Harvester and the cells are counted in a scintillation counter with scintillent at the end. The cpm for each group is then plotted against the log of DPA-713-IRDye concentration and the data fitted to a sigmoidal curve. The 50% inhibition of [^3H]PK11195 binding is then determined and reported as the IC50 (FIG. 3).

[3] = test system: TSPO+ PC-3 PIP and PC-3 flu prostate xenografts; experiment: In vivo NIRF imaging in PC-3 PIP and PC-3 flu xenograft bearing mice; set-up: species or system athymic nude mice; conditions: for Distribution of fluorescent signal, tracer only: 8 nmol intraperitoneally
Protocol: (§1) FIG. 7 depicts imaging of athymic nude mice bearing two subcutaneous xenografts each consisting of one PC-3 PIP (PSMA+ stable transfected, macrophage and vasculature enriched) and PC-3 flu (PC-3 transfected with empty vector) were injected intraperitoneally with 8 nmol of DPA-713-IRDye680LT when the tumors reached 4-8 mm in diameter. […] The mice were imaged in vivo at 1 hour post-injection and again at 24 hours post-injection.
Prostate lines PC-3 PIP (PSMA stable transfected) and PC-3 flu (empty vector transfected) cells were originally a gift from Warren B. Heston (Cleveland Clinic Foundation). PC-3 is androgen insensitive and constituitively expresses TSPO. […] Intact male athymic nude mice were inoculated subcutaneously with 2×10^6 PC-3 PIP cells behind the right forearm and 2×10^6 PC-3 flu cells behind the left forearm and were allowed to grow for 14 days until they reached 1 cm in longest diameter. Mice bearing LNCaP xenografts were inoculated with 5×10^6 cells in Matrigel (1:1, vol:vol) (Becton Dickenson, Franklin Lakes, N.J.) and were allowed to grow for a year before they reached 1 cm in diameter. The mice were then used in imaging experiments as described below.
PC-3 PIP and -flu xenograft bearing mice. […] The mice were anesthetized with isoflurane gas (2% in oxygen) and imaged at 1 hour and 24 hours post-injection using the Pearl Impulse imager using the 680 absorption/710 emission channels (DPA-713-IRDye680LT). PIP/flu and LNCaP-bearing mice were imaged using the inventive probe DPA-713-IRDye800CW at 1 hour post-injection using a Perkin Elmer IVIS 200 instrument set to absorb at 790 nm and emit at 810 nm. Images were visualized and processed using the manufacturer's Living Image software.
as §1, with “Prostate tumors that have become androgen insensitive constituitively express TSPO, including the PC-3 cell line. Athymic” for “FIG. 7 depicts imaging of athymic”

## CCN(CC)C(=O)Cc1c(-c2ccc(OCCNC(=O)CCCCc3cccc(C(=C\C=C4/N(CCCS(=O)(=O)O)c5ccc6c(S(=O)(=O)O)cc(S(=O)(=O)O)cc6c5C4(C)C)/C=C/C4=[N+](CCCS(=O)(=O)[O-])c5ccc6c(S(=O)(=O)O)cc(S(=O)(=O)O)cc6c5C4(C)C)c3)cc2)nn2c(C)cc(C)nc12 [DPA-713-IRDye680LT, 3-(2-((1E,3Z,5Z)-3-(3-(5-(2-(4-(3-(2-(diethylamino)-2-oxoethyl)-5,7-dimethylpyrazolo[1,5-a]pyrimidin-2-yl)phenoxy)ethylamino)-5-oxopentyl)phenyl)-5-(1,1-dimethyl-6,8-disulfo-3-(3-sulfopropyl)-1Hbenzo[e]indol-2(3H)-ylidene)penta-1,3-dienyl)-1,1-dimethyl-6,8-disulfo-1H-benzo[e]indolium-3-yl)propane-1-sulfonate]
[1]
  Probe uptake in the larger (8 mm) PSMA+ xenograft: visible 1 hour following peritoneal injection and continues through 24 hours after injection
  Probe uptake in the smaller (3 mm) parental xenograft: no observable uptake until the fur and skin are removed at 24 hours post-injection
[2]
  IC50: ~325 nM
[3]; 1 hour post-injection
  Distribution of fluorescent signal, tracer only: only the macrophage enriched PC-3 PIP tumor is clearly visible
[3]; 24 hours post-injection
  Distribution of fluorescent signal, tracer only: distributed at the periphery of both tumors in the tracer-only mouse and is strongly retained by TSPO+ kidneys
[3]; 8 nmol tracer + 20 mg/kg unlabeled DPA-713, 1 hour post-injection
  Tumor uptake with co-administered unlabeled DPA-713: Neither tumor takes up the fluorescent probe
[3]; 8 nmol tracer + 20 mg/kg unlabeled DPA-713, 24 hours post-injection
  Tumor and kidney uptake with co-injected unlabeled DPA-713: neither tumor nor kidney uptake
[3]; 24 hours post-injection, intraperitoneal
  Clearance of unbound probe: cleared from the peritoneal space
